Assay results from patent US20240391923A1, “METHIONINE ADENOSYLTRANSFERASE 2A INHIBITOR FOR TREATING MTAP DELETION-TYPE CANCER” (SUZHOU GENHOUSE BIO CO., LTD., priority 2022, published 2024).
Where two headings read alike, the source gives them in different places.

Columns and labels:
DOHH-2 cell strain = test: Tumor cell proliferation inhibition assay (CellTiter-Glo), DOHH-2; format: cell-based; settings: Homo sapiens, 120 h, DOHH-2 cells, 5-day treatment
In short: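 Growth inhibition is evaluated from cellular ATP measured with CellTiter-Glo once cells have been treated for 5 days. Compounds are added 24 h after seeding as ten threefold dilutions starting at 10 μM, with a separate DMSO treatment group.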

CYP1A2 = target: T1, CYP1A2 (Homo sapiens, UniProt P05177); test: Cytochrome oxidase P450 inhibition test, CYP1A2; format: in vitro ADME; settings: liver microsome incubation
T1 construct: from tissue; host or cells: liver microsome
T1 sequence (P05177 1-516): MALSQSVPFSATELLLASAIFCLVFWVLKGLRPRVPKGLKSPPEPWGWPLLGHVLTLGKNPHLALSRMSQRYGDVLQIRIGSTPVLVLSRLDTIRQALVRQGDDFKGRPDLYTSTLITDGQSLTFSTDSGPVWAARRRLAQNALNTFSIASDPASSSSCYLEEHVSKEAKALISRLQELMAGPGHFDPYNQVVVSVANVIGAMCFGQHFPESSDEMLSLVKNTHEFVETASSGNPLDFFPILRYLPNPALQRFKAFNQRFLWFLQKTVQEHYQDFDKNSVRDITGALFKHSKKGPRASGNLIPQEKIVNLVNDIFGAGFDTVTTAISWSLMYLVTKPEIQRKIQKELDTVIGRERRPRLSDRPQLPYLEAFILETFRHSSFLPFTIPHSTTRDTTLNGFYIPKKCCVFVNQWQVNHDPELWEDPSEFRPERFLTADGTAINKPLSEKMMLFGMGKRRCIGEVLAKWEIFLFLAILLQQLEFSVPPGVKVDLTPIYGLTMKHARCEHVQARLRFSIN
Experimental: (§1) 100 mM K-Buffer: 9.5 mL of stock solution A was mixed with 40.5 mL of stock solution B, the total volume was adjusted to […] with ultrapure water, and the buffer was titrated to pH 7.4 with KOH or H3PO4. • Starting material A (1 M potassium dihydrogen phosphate): 136.5 g of potassium dihydrogen phosphate in 1 L of water. • Stock B […] in 1 L of water. The test substance powder was prepared into a stock solution with a certain concentration using DMSO or other organic solvents, which was then further diluted using a proper organic solvent. The extracorporeal incubation system for CYP450 enzyme metabolism phenotype study was biochemical reaction of a prepared liver microsome, a redox coenzyme, and an enzyme-specific selective inhibitor in simulated physiological temperature and environment. The concentration of the parent drug or a metabolite thereof in the incubation solution was determined by LC-MS/MS.

CYP2C9 = target: T2, CYP2C9 (Homo sapiens, UniProt P11712); test: Cytochrome oxidase P450 inhibition test, CYP2C9; format: in vitro ADME; settings: liver microsome incubation
T2 construct: from tissue; host or cells: liver microsome
Experimental: as §1

CYP2C19 = target: T3, CYP2C19 (Homo sapiens, UniProt P33261); test: Cytochrome oxidase P450 inhibition test, CYP2C19; format: in vitro ADME; settings: liver microsome incubation
T3 construct: from tissue; host or cells: liver microsome
Experimental: as §1

CYP2D6 = target: T4, CYP2D6 (Homo sapiens, UniProt P10635); test: Cytochrome oxidase P450 inhibition test, CYP2D6; format: in vitro ADME; settings: liver microsome incubation
T4 construct: from tissue; host or cells: liver microsome
Experimental: as §1

CYP3A4 = target: T5, CYP3A4 (Homo sapiens, UniProt P08684); test: Cytochrome oxidase P450 inhibition test, CYP3A4; format: in vitro ADME; settings: liver microsome incubation
T5 construct: from tissue; host or cells: liver microsome
Experimental: as §1

[1] = Stability test in liver microsomes, rat; format: in vitro ADME, Sprague-Dawley rats; settings: Sprague-Dawley; rat liver microsomes 0.5 mg/mL, 1.0 μM substrate, up to 60 min; read-out: Metabolic half-life in rat liver microsome (T½, min)
[2] = Pharmacokinetic test in rats (IV and PO); format: in vivo; settings: rat, plasma, SD rats; for half-life: read-out: T½ (converted)
[3] = system: Human colorectal adenocarcinoma cells HCT116-MTAP-KO; test: Mouse xenograft tumor pharmacodynamic model, HCT116-MTAP-KO; format: in vivo
Experimental: In this example, the in vivo efficacy of the compound in a mouse xenograft tumor model after intragastric (PO) administration was tested.
Human colorectal adenocarcinoma cells HCT116-MTAP-KO were cultured in monolayer in vitro under the condition of McCoy's 5A medium containing 10% fetal bovine serum and 1% penicillin and streptomycin, and the culture was carried out at 37° C. with 5% CO2. The cells were digested with trypsin three times a week for passaging. When the saturation degree of the cells was 80-90%, the cells were collected, counted and inoculated. 0.1 mL (5×10^6 cells) of HCT116-MTAP-KO cells were subcutaneously inoculated on the right back of each mouse. On day 16 after inoculation of the cells, the mean tumor volume reached 154 mm^3. The mice were randomly grouped for administration and intragastrically dosed once daily. Changes in body weight and tumor volume were recorded. After a certain number of days of administration, the experiment was ended. Tumor volume changes and mouse body weight changes were counted and analyzed. AG270 (CAS: 2201056-66-6) was the positive control compound.

[4] = IC50 score, read-out: Tumor cell 5-day relative growth inhibition (DOHH-2) (nM), score
[5] = IC50 value, read-out: Tumor cell 5-day relative growth inhibition (DOHH-2)

T3 sequence (P33261 whole entry): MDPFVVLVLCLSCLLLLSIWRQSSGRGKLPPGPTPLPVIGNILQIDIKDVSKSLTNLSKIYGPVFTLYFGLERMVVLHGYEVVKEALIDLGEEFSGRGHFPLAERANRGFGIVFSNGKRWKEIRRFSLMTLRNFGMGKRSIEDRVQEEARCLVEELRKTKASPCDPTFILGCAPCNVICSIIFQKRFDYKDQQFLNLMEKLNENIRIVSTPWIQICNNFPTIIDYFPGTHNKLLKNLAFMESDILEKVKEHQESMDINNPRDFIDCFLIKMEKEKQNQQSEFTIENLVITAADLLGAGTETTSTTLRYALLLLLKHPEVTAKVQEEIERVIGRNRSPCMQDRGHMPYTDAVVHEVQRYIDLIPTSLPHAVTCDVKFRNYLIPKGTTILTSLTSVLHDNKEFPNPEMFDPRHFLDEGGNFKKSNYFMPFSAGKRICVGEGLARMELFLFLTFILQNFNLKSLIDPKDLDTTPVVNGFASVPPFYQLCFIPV
T5 sequence (P08684 whole entry): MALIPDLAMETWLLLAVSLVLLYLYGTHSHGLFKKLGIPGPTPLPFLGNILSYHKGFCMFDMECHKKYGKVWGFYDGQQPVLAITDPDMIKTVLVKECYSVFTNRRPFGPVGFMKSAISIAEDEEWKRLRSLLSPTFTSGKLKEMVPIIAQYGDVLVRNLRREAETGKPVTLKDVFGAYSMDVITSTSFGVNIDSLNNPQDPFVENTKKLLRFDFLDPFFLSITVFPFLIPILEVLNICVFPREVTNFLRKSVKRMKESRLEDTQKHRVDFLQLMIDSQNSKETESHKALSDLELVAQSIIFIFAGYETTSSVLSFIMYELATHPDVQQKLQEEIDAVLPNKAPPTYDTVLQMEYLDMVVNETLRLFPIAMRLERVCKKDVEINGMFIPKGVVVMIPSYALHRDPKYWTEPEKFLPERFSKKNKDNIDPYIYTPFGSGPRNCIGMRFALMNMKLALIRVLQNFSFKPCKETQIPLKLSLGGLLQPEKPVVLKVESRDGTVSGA
T4 sequence (P10635 whole entry): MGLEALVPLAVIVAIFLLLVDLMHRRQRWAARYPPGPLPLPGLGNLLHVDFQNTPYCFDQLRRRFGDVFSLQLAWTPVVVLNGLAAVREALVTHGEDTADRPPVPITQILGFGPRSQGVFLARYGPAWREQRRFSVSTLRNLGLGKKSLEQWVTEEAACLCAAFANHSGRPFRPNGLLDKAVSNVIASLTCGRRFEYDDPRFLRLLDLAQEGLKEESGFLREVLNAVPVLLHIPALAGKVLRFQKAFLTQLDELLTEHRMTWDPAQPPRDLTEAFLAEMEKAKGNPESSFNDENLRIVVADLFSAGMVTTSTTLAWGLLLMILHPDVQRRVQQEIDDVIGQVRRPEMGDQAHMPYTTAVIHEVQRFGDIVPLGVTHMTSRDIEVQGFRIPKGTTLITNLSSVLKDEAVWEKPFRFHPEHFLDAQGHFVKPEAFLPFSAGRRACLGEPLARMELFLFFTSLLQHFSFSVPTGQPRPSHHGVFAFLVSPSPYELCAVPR
T2 sequence (P11712 whole entry): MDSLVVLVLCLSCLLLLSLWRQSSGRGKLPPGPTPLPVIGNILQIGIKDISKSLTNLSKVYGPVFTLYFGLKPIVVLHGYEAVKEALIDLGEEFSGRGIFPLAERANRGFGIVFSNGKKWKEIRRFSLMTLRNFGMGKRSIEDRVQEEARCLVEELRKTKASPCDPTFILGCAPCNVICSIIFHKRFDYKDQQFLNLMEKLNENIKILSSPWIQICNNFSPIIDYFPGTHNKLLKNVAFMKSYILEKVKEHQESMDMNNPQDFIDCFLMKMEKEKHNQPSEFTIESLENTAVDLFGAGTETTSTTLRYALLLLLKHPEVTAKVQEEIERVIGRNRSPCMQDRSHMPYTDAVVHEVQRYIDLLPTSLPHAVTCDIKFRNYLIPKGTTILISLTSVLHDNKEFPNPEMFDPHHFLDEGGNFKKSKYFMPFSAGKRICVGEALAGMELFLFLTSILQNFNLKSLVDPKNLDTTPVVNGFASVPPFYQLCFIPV

| SMILES | IC50 (DOHH-2 cell strain; [4]) | IC50 (DOHH-2 cell strain; [5]) | IC50 (CYP1A2) | IC50 (CYP2C9) | IC50 (CYP2C19) | IC50 (CYP2D6) | IC50 (CYP3A4) | half-life at 1 μM [1] | AUC ([2]; IV 1 mg/kg) | clearance ([2]; IV 1 mg/kg) | half-life ([2]; IV 1 mg/kg) | AUC ([2]; PO 5 mg/kg) | half-life ([2]; PO 5 mg/kg) | also measured |
| --- | --- | --- | --- | --- | --- | --- | --- | --- | --- | --- | --- | --- | --- | --- |
| Cc1ncccc1-n1c(=O)c2nn(C)cc2c2ccc(C(F)(F)F)nc21 (single isomer, unassigned) [Compound B180] | < 500 nM | 134 nM | > 10 µM | > 10 µM | > 10 µM | > 10 µM | > 10 µM |  |  |  |  |  |  |  |
| Cn1cc2c(n1)c(=O)n(-c1cccnc1)c1cc(Cl)ccc21 [Compound B12] | 500 to 2000 nM | 1110 nM | > 10 µM | > 10 µM | > 10 µM | > 10 µM | > 10 µM | > 145 min | 18.9 µM·h | 2.67 mL/min/kg | 3.4 h | 223 µM·h | 3.7 h | bioavailability ([2]; IV 1 mg/kg, PO 5 mg/kg): 217% |
| Cn1cc2c(n1)c(=O)n(-c1cccc3[nH]ncc13)c1cc(Cl)ccc21 [Compound B60] | < 500 nM | 39.1 nM | > 10 µM | > 10 µM | > 10 µM | > 10 µM | > 10 µM | > 145 min |  |  |  |  |  |  |
| Cn1cc2c(n1)c(=O)n(-c1cccc(O)c1)c1nc(C(F)(F)F)ccc21 [Compound B148] | < 500 nM | 443 nM |  |  |  |  |  | 142 min |  |  |  |  |  |  |
| Cn1cc2c(n1)c(=O)n(-c1cccc3[nH]ncc13)c1nc(C(F)(F)F)ccc21 [Compound B181] | 500 to 2000 nM | 1040 nM | > 30 µM | > 30 µM | > 30 µM | > 30 µM | > 30 µM | > 145 min | 120 µM·h | 0.333 mL/min/kg | 6.7 h | 541 µM·h | 9.5 h | bioavailability ([2]; IV 1 mg/kg, PO 5 mg/kg): 90% |
| Cn1cc2c(n1)c(=O)n(-c1ccccc1Cl)c1nc(C(F)(F)F)ccc21 [Compound B182] |  |  |  |  |  |  |  | 20.4 min |  |  |  |  |  |  |
| Cn1cc2c(n1)c(=O)n(-c1cccc3[nH]ncc13)c1cc(Cl)c(F)cc21 [Compound B257] |  |  |  |  |  |  |  |  | 177 µM·h | 0.283 mL/min/kg | 8.8 h |  |  | bioavailability ([2]; IV 1 mg/kg, PO 10 mg/kg): 243%; half-life ([2]; PO 10 mg/kg): 72.8 h; Tumor growth inhibition percentage (TGI) ([3]; PO 1 mg/kg once a day, 15 days of administration): once a day TGI = 77.29%; Tumor growth inhibition percentage (TGI) ([3]; PO 1 mg/kg once a day, 28 days of administration): once a day TGI = 51.34%; Tumor growth inhibition percentage (TGI) ([3]; PO 3 mg/kg once a day, 28 days of administration): once a day TGI = 87.78% |
| Cn1cc2c(n1)c(=O)n(-c1cccc3[nH]ncc13)c1cc(Cl)c(C#N)cc21 [Compound B258] |  |  |  |  |  |  |  |  |  |  |  |  |  | Tumor growth inhibition percentage (TGI) ([3]; PO 3 mg/kg once a day, 15 days of administration): once a day TGI = 52.48%; Tumor growth inhibition percentage (TGI) ([3]; PO 10 mg/kg once a day, 15 days of administration): once a day TGI = 72.58%; Tumor growth inhibition percentage (TGI) ([3]; PO 30 mg/kg once a day, 15 days of administration): once a day TGI = 81.2%; Tumor growth inhibition percentage (TGI) ([3]; PO 100 mg/kg once a day, 15 days of administration): once a day TGI = 83.75% |
| Cn1cc2c(n1)c(=O)n(-c1cccnc1C1CC1)c1cc(Cl)c(F)cc21 [Compound B340] |  |  |  |  |  |  |  |  | 10.2 µM·h | 4.5 mL/min/kg | 6.7 h | 68.9 µM·h | 14.7 h | Tumor growth inhibition percentage (TGI) ([3]; PO 3 mg/kg once a day, 22 days of administration): once a day TGI = 48.04%; Tumor growth inhibition percentage (TGI) ([3]; PO 10 mg/kg once a day, 22 days of administration): once a day TGI = 61.99%; Tumor growth inhibition percentage (TGI) ([3]; PO 30 mg/kg once a day, 22 days of administration): once a day TGI = 72.55% |
